These are literature values, as cited in article PMC4801399, “Impact of a CXCL12/CXCR4 Antagonist in Bleomycin (BLM) Induced Pulmonary Fibrosis and Carbon Tetrachloride (CCl4) Induced Hepatic Fibrosis in Mice” (PLoS ONE, 2016).

Molecules are shown by their SMILES.

One data set concerns liver fibrosis. Conditions: cited from earlier work.
The next data set deals with BLM induced PF. Conditions: cited from earlier work.

`c1cc(CN2CCCNCCNCCCNCC2)ccc1CN1CCCNCCNCCCNCC1` [AMD3100]: in the data set on liver fibrosis, the liver fibrosis result is “increased”; the “transcript levels of Acta2 and Col1a1” value is reported as “increased”. Further, the “number of fibrocytes in the lung” value in the data set on BLM induced PF (3 and 7 days post BLM treatment) is listed as “decreased”. For the same compound, in the data set with BLM induced PF, the “mortality associated with BLM induced PF” value was “alleviate”. Besides, the “lung fibrosis and fibrocyte infiltration into the lung” value in the data set on BLM induced PF (murine model of BLM induced PF) is “reduce”.
